Laboratory results from patent US9567322B2, “Substituted tetrahydropyrans and method of use” (AbbVie S.á.r.l., priority 2014, dated 2017).

What was measured:
F508delCFTR = target: T1, F508delCFTR (Homo sapiens, UniProt P13569, DEL508-508); assay: Cell Surface Expression-Horse Radish Peroxidase (CSE-HRP) assay; assay type: cell-based; conditions: CFBE41o-F508delCFTR-HRP cells; for EC50: cell surface expression, luminescence readout, 18-24 hours at 33° C., highest concentration tested 20 μM, 8-point curve; for Maximum % activity: maximum at any tested concentration, normalized to on-plate positive control (3 μM) and DMSO
T1 construct: expressed in transfected cells; host or cells: CFBE41o- (CFBE41o-F508delCFTR-HRP), doxycycline-inducible
Method in brief: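 CFBE41o- cells expressing F508delCFTR with HRP in the fourth extracellular loop were doxycycline-induced (0.5 μg/mL) for 72 h at 37 °C, then treated 18-24 h at 33 °C with an 8-point 3-fold series from 20 μM. Surface HRP luminescence (luminol) was normalized to DMSO and positive control; EC50 came from variable-slope sigmoidal fits of triplicate plates.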

F508del/F508del CFTR = target: T2, F508del/F508del CFTR (Homo sapiens, UniProt P13569, DEL508-508); assay: Transepithelial Clamp Circuit (TECC-24) conductance assay on primary human bronchial epithelial cells; assay type: cell-based; conditions: primary hBE cells from F508del/F508delCFTR patients; for EC50: equivalent short circuit current (Ieq), correctors 18-24 hours at 37° C., with control potentiator, 6 test concentrations; for Maximum % activity: relative to positive control (3 μM) coupled with control potentiator = 100%
T2 construct: cells isolated from CF patients with the homozygous mutation; endogenous in cells; host or cells: primary human bronchial epithelial (hBE) cells from F508del/F508del CF patients
From the text: Transepithelial Clamp Circuit on Human Bronchial Epithelial Cells Conductance Assay:
A cell based assay using the primary human bronchial epithelial cells (hBE) was used as a secondary assay to test novel F508delCFTR correctors for their activity on primary hBE cells with F508del/F508del CFTR mutation. The assay used a TECC-24 (Transepithelial Clamp Circuit for 24 wells) instrument that measures the functionality of the mutated channel by measuring the equivalent short circuit current (Ieq) generated by the polarized epithelial cells. The instrument works by measuring the transepithelial potential difference (Vt) and transepithelial resistance (Rt) in an open circuit format, and the Ieq is calculated by using Ohms law (Ieq=Vt/Rt). The assay was run in a 24-well format and all 24-wells were measured at the same time point giving a higher throughput for this assay.
Primary human bronchial epithelial (hBE) cells from F508del/F508delCFTR patients were expanded from 1×10^6 to 250×10^6 cells (Neuberger T, Burton B, Clark H and VanGoor F; Cystic Fibrosis, Methods in Mole Biol 741; eds. Amaral M D and Kunzelmann K, 2011). For this purpose, cells isolated from CF patients with the homozygous mutation were seeded onto 24 well Corning (Cat #3378) filter plates that were coated with 3T3 conditioned media and grown at an air-liquid interface for 35 days using an Ultroser® G supplemented differentiation media. Apical surface mucus was removed 72 hours before the experiment using 3 mM dithiothreitol (DTT) in phosphate buffered saline (PBS). The apical surface was washed again 24 hours before the experiment using PBS. The cells were incubated with the desired dose response of the corrector compounds 18-24 hours at 37° C., 5% CO2. The corrector compounds are only added on the basolateral side of the epithelial cells.
On the day of measuring the corrector activity on the TECC, the cells were switched into a bicarbonate and serum free F-12 Coon's medium and allowed to equilibrate for 90 minutes in a CO2 free incubator. At the time of measurement, the apical and basolateral sides of the filter were bathed with the F-12 Coon's modification media (with 20 mM 4-(2-hydroxyethyl)-1-piperazineethanesulfonic acid (HEPES), pH 7.4 (using 1 M tris(hydroxymethyl)aminomethane (Tris)), and the measurements were made at 36.5° C. Transepithelial voltage (Vt) and transepithelial resistance (Rt) were measured using a 24 channel transepithelial current clamp (TECC-24). Current responses to the sequential addition of benzamil (apical 6 M addition; for inhibiting epithelial ENaC channel), forskolin (apical and basolateral 10 M addition; for activating the CFTR channel), control potentiator (N-(3-carbamoyl-5,5,7,7-tetramethyl-4,7-dihydro-5H-thieno[2,3-c]pyran-2-yl)-1H-pyrazole-5-carboxamide; apical and basolateral 1 M addition; for potentiating the CFTR channel) and bumetanide (basolateral 20 μM addition; for inhibiting the Na:2Cl:K co-transporter, an indirect measure of inhibiting the Cl-secretion driven by CFTR channel) were measured.
All plates contained negative controls (dimethyl sulfoxide, DMSO) which coupled with the control potentiator (N-(3-carbamoyl-5,5,7,7-tetramethyl-4,7-dihydro-5H-thieno[2,3-c]pyran-2-yl)-1H-pyrazole-5-carboxamide) sets the null response and positive controls (3 μM of 3-[(2R,4R)-4-({[1-(2,2-difluoro-1,3-benzodioxol-5-yl)cyclopropyl]carbonyl}amino)-7-methoxy-3,4-dihydro-2H-chromen-2-yl]benzoic acid) coupled with the control potentiator sets the 100% response to measure the correction of the mutated CFTR channel. The maximum percent activity is reported relative to the positive control value.
The % activity measured at each of the 6 test concentrations of the test compound was normalized to the on-plate positive control using the following formula: % activity=[(test compound response−DMSO response)/(positive control response−DMSO response)]*100 […]

T2 sequence (P13569 with tags, fused parts or gaps DEL508-508): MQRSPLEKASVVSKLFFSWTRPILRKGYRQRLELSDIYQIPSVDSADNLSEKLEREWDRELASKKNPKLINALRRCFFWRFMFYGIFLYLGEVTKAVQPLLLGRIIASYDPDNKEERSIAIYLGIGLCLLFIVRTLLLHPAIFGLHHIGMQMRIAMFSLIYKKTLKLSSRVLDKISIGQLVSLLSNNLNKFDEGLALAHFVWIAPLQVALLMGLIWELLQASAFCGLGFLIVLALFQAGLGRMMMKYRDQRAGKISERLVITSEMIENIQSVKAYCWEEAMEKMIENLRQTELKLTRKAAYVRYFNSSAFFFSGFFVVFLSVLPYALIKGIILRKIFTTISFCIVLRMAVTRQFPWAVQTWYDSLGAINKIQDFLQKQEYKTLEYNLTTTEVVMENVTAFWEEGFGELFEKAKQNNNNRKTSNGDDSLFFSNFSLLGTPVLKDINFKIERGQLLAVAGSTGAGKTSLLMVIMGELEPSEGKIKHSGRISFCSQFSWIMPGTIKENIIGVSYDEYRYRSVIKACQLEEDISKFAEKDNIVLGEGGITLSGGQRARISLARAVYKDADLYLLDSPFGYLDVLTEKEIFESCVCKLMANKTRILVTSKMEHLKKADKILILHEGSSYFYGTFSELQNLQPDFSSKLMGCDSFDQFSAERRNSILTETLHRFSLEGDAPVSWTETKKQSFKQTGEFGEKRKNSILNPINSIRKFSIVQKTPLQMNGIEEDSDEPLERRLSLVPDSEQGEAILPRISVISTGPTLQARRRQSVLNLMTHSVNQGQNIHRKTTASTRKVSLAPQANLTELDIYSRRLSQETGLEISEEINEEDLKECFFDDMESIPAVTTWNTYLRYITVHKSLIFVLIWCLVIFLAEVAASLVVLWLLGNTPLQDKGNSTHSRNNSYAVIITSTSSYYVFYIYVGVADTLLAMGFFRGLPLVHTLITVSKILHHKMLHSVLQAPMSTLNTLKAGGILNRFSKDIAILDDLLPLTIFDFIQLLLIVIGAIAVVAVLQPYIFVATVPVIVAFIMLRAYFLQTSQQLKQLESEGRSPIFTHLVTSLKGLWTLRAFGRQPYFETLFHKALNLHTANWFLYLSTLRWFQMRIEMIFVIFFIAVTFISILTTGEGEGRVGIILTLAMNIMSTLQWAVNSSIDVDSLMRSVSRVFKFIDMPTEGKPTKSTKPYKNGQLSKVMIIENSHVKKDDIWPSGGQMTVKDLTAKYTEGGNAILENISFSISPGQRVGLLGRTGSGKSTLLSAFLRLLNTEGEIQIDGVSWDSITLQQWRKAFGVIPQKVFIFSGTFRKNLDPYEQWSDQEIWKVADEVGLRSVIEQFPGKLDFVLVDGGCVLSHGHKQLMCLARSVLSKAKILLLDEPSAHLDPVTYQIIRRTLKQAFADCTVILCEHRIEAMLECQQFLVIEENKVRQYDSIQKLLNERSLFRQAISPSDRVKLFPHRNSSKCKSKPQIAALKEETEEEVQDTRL
T1 sequence (P13569 with tags, fused parts or gaps DEL508-508): as above

| SMILES | EC50 (F508delCFTR) | Maximum % activity (F508delCFTR) | EC50 (F508del/F508del CFTR) | Maximum % activity (F508del/F508del CFTR) | Maximum % activity (F508delCFTR; 3 µM) |
| --- | --- | --- | --- | --- | --- |
| O=C(O)c1ccc([C@H]2C[C@@H](NC(=O)C3(c4ccc5c(c4)OC(F)(F)O5)CC3)CCO2)cc1 [Example 31, 4-[(2R,4S)-4-({[1-(2,2-difluoro-1,3-benzodioxol-5-yl)cyclopropyl]carbonyl}amino)tetrahydro-2H-pyran-2-yl]benzoic acid] | 770 nM | 102% | 1030 nM | 65% |  |
| O=C(O)c1cccc([C@H]2C[C@@H](NC(=O)C3(c4ccc5c(c4)OC(F)(F)O5)CC3)C[C@@H](c3ccccc3)O2)c1 [Example 27, 3-[(2R,4S,6S)-4-({[1-(2,2-difluoro-1,3-benzodioxol-5-yl)cyclopropyl]carbonyl}amino)-6-phenyltetrahydro-2H-pyran-2-yl]benzoic acid] | 280 nM | 109% | 100 nM | 94% |  |
| O=C(O)c1cccc([C@H]2C[C@@H](NC(=O)C3(c4ccc5c(c4)OC(F)(F)O5)CC3)C[C@@H](c3ccccc3)O2)c1 (racemic) [Example 24, rac-3-[(2R,4S,6S)-4-({[1-(2,2-difluoro-1,3-benzodioxol-5-yl)cyclopropyl]carbonyl}amino)-6-phenyltetrahydro-2H-pyran-2-yl]benzoic acid] | 500 nM | 109% | 340 nM | 76% |  |
| CC(C)(O)c1cccc([C@H]2C[C@H](NC(=O)C3(c4ccc5c(c4)OC(F)(F)O5)CC3)CCO2)c1 (racemic) [Example 7, rac-1-(2,2-difluoro-1,3-benzodioxol-5-yl)-N-{(2R,4R)-2-[3-(2-hydroxypropan-2-yl)phenyl]tetrahydro-2H-pyran-4-yl}cyclopropanecarboxamide] | 5560 nM | 27% |  |  |  |
| COC(=O)c1ccc([C@@H]2C[C@H](NC(=O)C3(c4ccc5c(c4)OC(F)(F)O5)CC3)C[C@H](c3ccc(C(=O)OC)cc3)O2)cc1 [Example 51, dimethyl rac-4,4′-[(2R,4s,6S)-4-({[1-(2,2-difluoro-1,3-benzodioxol-5-yl)cyclopropyl]carbonyl}amino)tetrahydro-2H-pyran-2,6-diyl]dibenzoate] | 760 nM | 103% |  |  |  |
| O=C(O)c1cccc([C@H]2C[C@H](NC(=O)C3(c4ccc5c(c4)OC(F)(F)O5)CC3)CCO2)c1 (racemic) [Example 5, rac-3-[(2R,4R)-4-({[1-(2,2-difluoro-1,3-benzodioxol-5-yl)cyclopropyl]carbonyl}amino)tetrahydro-2H-pyran-2-yl]benzoic acid] | ≥ 20000 nM | 13% |  |  |  |
| COC(=O)c1ccc([C@H]2C[C@@H](NC(=O)C3(c4ccc5c(c4)OC(F)(F)O5)CC3)CCO2)cc1 [Example 29, methyl 4-[(2R,4S)-4-({[1-(2,2-difluoro-1,3-benzodioxol-5-yl)cyclopropyl]carbonyl}amino)tetrahydro-2H-pyran-2-yl]benzoate] | 1050 nM | 107% |  |  |  |
| C[C@@H]1C[C@H](NC(=O)C2(c3ccc4c(c3)OC(F)(F)O4)CC2)C[C@H](c2ccc(C(=O)O)cc2)O1 (racemic) [Example 45, rac-4-[(2R,4S,6R)-4-({[1-(2,2-difluoro-1,3-benzodioxol-5-yl)cyclopropyl]carbonyl}amino)-6-methyltetrahydro-2H-pyran-2-yl]benzoic acid] | 2000 nM | 101% |  |  |  |
| O=C(O)c1ccc([C@H]2C[C@@H](NC(=O)C3(c4ccc5c(c4)OC(F)(F)O5)CC3)C[C@@H](c3ccccc3)O2)cc1 (racemic) [Example 50, rac-4-[(2R,4S,6S)-4-({[1-(2,2-difluoro-1,3-benzodioxol-5-yl)cyclopropyl]carbonyl}amino)-6-phenyltetrahydro-2H-pyran-2-yl]benzoic acid] | 520 nM | 92% |  |  |  |

Second part, the molecule after the results:

| EC50 (F508delCFTR) | Maximum % activity (F508delCFTR) | EC50 (F508del/F508del CFTR) | Maximum % activity (F508del/F508del CFTR) | Maximum % activity (F508delCFTR; 3 µM) | SMILES |
| --- | --- | --- | --- | --- | --- |
| 410 nM | 90% | 330 nM | 91% |  | Cc1cc(C(=O)O)cc([C@H]2C[C@@H](NC(=O)C3(c4ccc5c(c4)OC(F)(F)O5)CC3)C[C@@H](c3ccccc3)O2)c1 (racemic) [Example 73, rac-3-[(2R,4S,6S)-4-({[1-(2,2-difluoro-1,3-benzodioxol-5-yl)cyclopropyl]carbonyl}amino)-6-phenyltetrahydro-2H-pyran-2-yl]-5-methylbenzoic acid] |
|  |  |  | 84% | 100% | Cc1cc(C(=O)O)ccc1[C@H]1C[C@H](NC(=O)C2(c3ccc4c(c3)OC(F)(F)O4)CC2)C[C@@H](c2ccccc2)O1 (racemic) [Example 65, rac-4-[(2R,4R,6S)-4-({[1-(2,2-difluoro-1,3-benzodioxol-5-yl)cyclopropyl]carbonyl}amino)-6-phenyltetrahydro-2H-pyran-2-yl]-3-methylbenzoic acid] |
| 300 nM | 81% | 260 nM | 73% |  | O=C(O)c1ccc([C@H]2C[C@@H](NC(=O)C3(c4ccc5c(c4)OC(F)(F)O5)CC3)C[C@@H](c3ccccc3)O2)cc1 (single isomer, unassigned) [Example 53] |
| 270 nM | 97% | 140 nM | 83% |  | O=C(O)c1ccc([C@H]2C[C@@H](NC(=O)C3(c4ccc5c(c4)OC(F)(F)O5)CC3)C[C@@H](c3ccccc3)O2)c(F)c1 (racemic) [Example 60, rac-4-[(2R,4S,6S)-4-({[1-(2,2-difluoro-1,3-benzodioxol-5-yl)cyclopropyl]carbonyl}amino)-6-phenyltetrahydro-2H-pyran-2-yl]-3-fluorobenzoic acid] |
| 420 nM | 85% |  |  |  | COc1cccc([C@@H]2C[C@H](NC(=O)C3(c4ccc5c(c4)OC(F)(F)O5)CC3)C[C@H](c3cccc(C(=O)O)c3)O2)c1 (racemic) [Example 69, rac-3-[(2R,4R,6S)-4-({[1-(2,2-difluoro-1,3-benzodioxol-5-yl)cyclopropyl]carbonyl}amino)-6-(3-methoxyphenyl)tetrahydro-2H-pyran-2-yl]benzoic acid] |
| 880 nM | 111% |  |  |  | COC(=O)c1ccc([C@H]2C[C@@H](NC(=O)C3(c4ccc5c(c4)OC(F)(F)O5)CC3)C[C@@H](c3ccccc3)O2)c(C)c1 (racemic) [Example 62, methyl rac-4-[(2R,4S,6S)-4-({[1-(2,2-difluoro-1,3-benzodioxol-5-yl)cyclopropyl]carbonyl}amino)-6-phenyltetrahydro-2H-pyran-2-yl]-3-methylbenzoate] |
